These are literature values, as cited in patent US8415362B2, “Pyrazolyl substituted pyrrolo[2,3-b]pyrimidines as Janus kinase inhibitors” (Incyte Corporation, priority 2005, dated 2013).

Structures are written as SMILES.

The conditions of series [1]: some patients.
Series [2] concerns myeloid dendritic cells (DCs). Particulars: DCs arrested at an immature level.
For series [3], the target named is T1, JAK3 (Mus musculus, UniProt Q62137).
T1 construct: host or cells: NOD mouse (in vivo)
T1 sequence (Q62137 1-1100): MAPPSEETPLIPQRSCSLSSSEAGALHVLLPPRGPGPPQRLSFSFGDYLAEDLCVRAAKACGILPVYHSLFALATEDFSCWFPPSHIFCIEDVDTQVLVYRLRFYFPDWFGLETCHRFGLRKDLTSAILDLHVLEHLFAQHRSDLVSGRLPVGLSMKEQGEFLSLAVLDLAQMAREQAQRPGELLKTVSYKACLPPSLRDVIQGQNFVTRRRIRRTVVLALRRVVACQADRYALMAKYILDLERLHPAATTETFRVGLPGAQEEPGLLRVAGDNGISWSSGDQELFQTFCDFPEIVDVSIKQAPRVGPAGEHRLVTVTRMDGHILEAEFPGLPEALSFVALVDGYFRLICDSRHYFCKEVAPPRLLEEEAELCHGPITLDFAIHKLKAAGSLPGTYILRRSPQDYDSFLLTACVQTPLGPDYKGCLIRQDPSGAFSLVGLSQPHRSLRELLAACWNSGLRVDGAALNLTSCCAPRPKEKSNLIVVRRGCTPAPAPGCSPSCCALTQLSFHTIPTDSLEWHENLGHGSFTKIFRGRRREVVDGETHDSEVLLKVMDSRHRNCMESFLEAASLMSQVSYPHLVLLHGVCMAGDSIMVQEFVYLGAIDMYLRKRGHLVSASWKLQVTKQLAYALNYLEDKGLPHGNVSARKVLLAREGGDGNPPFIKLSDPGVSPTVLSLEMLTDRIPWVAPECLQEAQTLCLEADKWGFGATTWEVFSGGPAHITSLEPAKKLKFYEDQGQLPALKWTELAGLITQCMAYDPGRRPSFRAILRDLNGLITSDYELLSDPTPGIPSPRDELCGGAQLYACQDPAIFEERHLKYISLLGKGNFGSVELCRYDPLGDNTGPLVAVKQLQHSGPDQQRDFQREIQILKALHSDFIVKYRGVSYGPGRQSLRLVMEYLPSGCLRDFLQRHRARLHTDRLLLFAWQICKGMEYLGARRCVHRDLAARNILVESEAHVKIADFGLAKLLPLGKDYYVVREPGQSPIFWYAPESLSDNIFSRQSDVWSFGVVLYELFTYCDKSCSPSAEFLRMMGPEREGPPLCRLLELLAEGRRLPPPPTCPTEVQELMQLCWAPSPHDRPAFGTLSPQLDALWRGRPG

The subject of series [4] is IL-6-dependent MM cell lines.

Take `C#Cc1cccc(Nc2ncnc3cc(OCCOC)c(OCCOC)cc23)c1` [Tarceva]: the acneiform rash result in series [1] is recorded as “induced acneiform rash”.
For the compound `COc1cc2ncnc(Nc3ccc(O)c(Br)c3)c2cc1OC` [WHI-P-154], in series [2], the “CD40-induced effects (JAK3 activity, costimulatory molecule expression, IL-12 production, allogeneic stimulatory capacity)” value was “prevented these effects”.
In the case of `COc1cc2ncnc(Nc3ccc(O)cc3)c2cc1OC` [JANEX-1], the onset of diabetes entry in series [3] (NOD mouse model of autoimmune type I diabetes) is given as “delayed the onset of diabetes”. Moreover, in series [3] (mouse, in vivo), the immunomodulatory activity result is “potent immunomodulatory activity”.
Consider `N#C/C(=C\c1ccc(O)c(O)c1)C(=O)NCc1ccccc1` [tyrphostin AG490], for which, in series [4] (IL-6-dependent MM cell lines), the “ERK2 and STAT3 phosphorylation” value is recorded as “inhibited”; the JAK2 kinase activity result is “inhibited”; the apoptosis entry is given as “induced”; the cell proliferation result was “suppressed”. Besides, the “dormancy of tumor cells” value in series [4] (in some cases, then protects the tumor cells from death) is given as “induce dormancy of tumor cells”.
